Converted amounts (≈) assume the structure as drawn. “Also recorded” adds a separate entry of the source.
Experiments:
[1] = tested on: T. cruzi amastigotes; assay: Inhibition of T. cruzi amastigote replication in Vero cells (β-galactosidase transfected parasites, CPRG); format: cell-based, Trypanosoma cruzi; settings: for IC50: infected Vero cells, 0-100 µg/mL, β-galactosidase/CPRG readout, read-out: IC50 against T. cruzi amastigotes (intracellular forms); for Selectivity Index Amastigotes T. cruzi: Vero CC50 relative to amastigote IC50
Description: Figure 3 Inhibition of T. cruzi amastigotes replication by estafietin (1) and estafietin derivatives (2–5). Mammalian cells (5 × 10^3 cells/well) were seeded in 96-well plates and infected 24 h later with transfected trypomastigotes expressing β-galactosidase. After 24 h of co-culture, plates were washed and compounds were added at 0–100 µg/mL in 150 µL medium. On day 6 post-infection, the assays were developed by the addition of CPRG (100 mM) and Nonidet P-40 (1%). Plates were incubated for 6 h and the optical density was read at 570 nm. Infected untreated mammalian cells were used as 100% infection control. The percentage of inhibition was calculated as 100 − {[(Absorbance of treated infected cells)/(Absorbance of untreated infected cells)] × 100}. Symbols represent mean ± SEM. Each treatment was compared to controls: parasites incubated with culture medium only. * p < 0.05, ** p < 0.01 and *** p < 0.005. TEXT PRINTED IN THE PICTURE: Estafietin (1): IC50 (μg/mL): 28.8 | 11βH,13-dihydroestafietin (2): IC50 (μg/mL): 83.0 | α and β epoxyestafietin (3a and 3b): IC50 (μg/mL): 2.0 | 11βH,13-methoxyestafietin (4): IC50 (μg/mL): 30.5 | 11βH,13-cianoestafietin (5): IC50 (μg/mL): 99.0
The effect of the compounds on intracellular forms of T. cruzi was assayed using β-galactosidase transfected parasites. Ninety-six well culture plates were seeded with nonphagocytic Vero cells at 5 × 10^3 per well in […] of culture medium and incubated for 24 h at 37 °C in a 5% CO2 atmosphere. Cells were then washed and infected with transfected bloodstream trypomastigotes expressing β-galactosidase at a parasite/cell ratio of 10:1. After […] of coculture, plates were washed twice with PBS to remove unbound parasites and each pure compound was added at different concentrations (0–100 µg/mL) in 150 µL of fresh complete RPMI medium without phenol red (Gibco, Rockville, MD, USA). Controls included infected untreated cells (100% infection control) and uninfected cells (0% infection control). The assay was developed by the addition of chlorophenolred-β-D-galactopyranoside (CPRG) (100 mM) and 1% Nonidet P40, 5 days later. Plates were incubated for 4–6 h at 37 °C and the absorbance was measured at 595 nm in a microplate reader (Bio-Rad Laboratories, Hercules, CA, USA). The percentage inhibition was calculated as 100 – {[(absorbance of treated infected cells)/(absorbance of untreated infected cells) × 100]} and the IC50 value was estimated. Benznidazole was used as positive control.
(§1) Results are presented as means ± SEM. The GraphPad Prism 5.0 software (GraphPad Software Inc., San Diego, CA, USA) was employed to carry out calculations. To calculate IC50 and CC50 values, the percentages of inhibition were plotted against the drug concentration and fitted with a straight line determined by a linear regression (Sigma Plot 10 software, (Systat Software, San Jose, CA, USA). Results presented are representative of three to four independent experiments.

[2] = tested on: T. cruzi bloodstream trypomastigotes; assay: Trypanocidal activity on T. cruzi bloodstream trypomastigotes (counting of living parasites in Neubauer chamber); format: cell-based, Trypanosoma cruzi; settings: for IC50: Trypanosoma cruzi, 24 h incubation, 0-100 µg/mL, living parasites counted, read-out: IC50 against T. cruzi bloodstream trypomastigotes; for Selectivity Index Trypomastigotes T. cruzi: Vero CC50 relative to trypomastigote IC50; for activity against the infective form of T. cruzi compared with estafietin (in words): trypomastigotes, discussion statement
Description: Figure 2 Trypanocidal activity of estafietin (1) and estafietin derivatives (2–5) against T. cruzi bloodstream trypomastigotes. Bloodstream trypomastigotes were assayed in duplicate in the presence of 0 to 100 µg/mL of estafietin (1), 11βH,13-dihydroestafietin (2), α- (3a) and β-epoxyestafietin (3b) (1:4 mixture), 11βH,13-methoxyestafietin (4) and 11βH,13-cianoestafietin (5). Cultures were done in 96-well plates with 1.5 × 10^6 parasites/mL over 24 h. The living parasites were then counted in a Neubauer chamber. Symbols represent mean ± SEM. Each treatment was compared to controls: parasites incubated with culture medium only. * p < 0.05, ** p < 0.01 and *** p < 0.005. TEXT PRINTED IN THE PICTURE: Estafietin (1): IC50 (μg/mL): 25.2 | 11βH,13-dihydroestafietin (2): IC50 (μg/mL): 97.1 | α and β epoxyestafietin (3a and 3b): IC50 (μg/mL): 18.7 | 11βH,13-methoxyestafietin (4): IC50 (μg/mL): >100 | 1βH,13-cianoestafietin (5): IC50 (μg/mL): 78.1
The trypanocidal effect of the purified compounds was tested on transfected bloodstream trypomastigotes (Tulhauen strain). Briefly, mouse blood containing trypomastigotes was diluted in complete LIT medium to adjust the parasite concentration to 2 × 10^6/mL. Parasites were seeded in duplicate in a 96-well microplate in the presence of each compound (0–100 µg/mL) and controls and incubated at 4 °C for 24 h. The number of remaining living parasites in each sample was determined in 5 µL of cell suspension diluted 1/5 in lysis buffer (0.75% NH4Cl, 0.2% Tris, pH 7.2) and counted in a Neubauer chamber.
as §1

[3] = tested on: L. braziliensis promastigotes; assay: Leishmanicidal activity on L. braziliensis promastigotes ([3H] thymidine uptake assay); format: cell-based, Leishmania braziliensis; settings: for IC50: Leishmania braziliensis, 72 h, 0-50 µg/mL, [3H] thymidine uptake; for Selectivity Index Promastigotes L. braziliensis: Vero CC50 relative to promastigote IC50
Description: Figure 4 Leishmanicidal activity of estafietin (1) and estafietin derivatives (2–5) on L. braziliensis promastigotes. Parasites were cultured for 72 h in the presence of each compound (0–50 µg/mL). The inhibition of parasite growth was evaluated by a [^3H] thymidine uptake assay. The percentage of inhibition was calculated as 100 − [(cpm of treated parasites)/(cpm of untreated parasites)] × 100. Values represent mean ± SEM from three independent experiments carried out in triplicate. Each treatment was compared to controls: parasites incubated with culture medium only. * p < 0.05, ** p < 0.01 and *** p < 0.005. TEXT PRINTED IN THE PICTURE: Estafietin (1): IC50 (μg/mL): 1.0 | 11βH,13-dihydroestafietin (2): IC50 (μg/mL): 1.3 | α and β epoxyestafietin (3a and 3b): IC50 (μg/mL): 7.8 | 11βH,13-methoxyestafietin (4): IC50 (μg/mL): 48.7 | 11βH,13-cianoestafietin (5): IC50 (μg/mL): 51.8
The growth inhibition of Leishmania braziliensis promastigotes was evaluated by the (^3H) thymidine [(^3H)T] uptake assay. Parasites (5 × 10^6) were settled at a final volume of 150 µL in a flat-bottom 96-well microplate and cultured at 28 °C in either the absence or the increasing concentrations of the pure compounds (0–50 µg/mL). After 72 h, 1 µC of [^3H]T was added to each well, and cultures were incubated for 16 h. Counts per minute (cpm) of triplicate cultures were measured by an automated liquid scintillation counter (Packard, Downers Grove, IL, USA). The percentage of inhibition was calculated as {100 − [(cpm of treated parasites/cpm of untreated parasites) × 100]}. The compound concentration at which the parasite growth was inhibited by 50% (IC50) was determined. Amphotericin B was used as positive control.
as §1

[4] = tested on: Vero cells; assay: Host cell toxicity on Vero cells by the MTT method; format: cell-based
Description: (§2) The cytotoxicity of the natural and synthetic compounds was evaluated on Vero cells by the MTT method. The 50% cytotoxic concentration (CC50) of each compound was determined. Selectivity indexes (SI) were calculated for T. cruzi trypomastigotes and amastigotes and for L. braziliensis promastigotes (Table 1).
(§3) Vero cells were employed to determine the viability by the 3-(4,5-dimethylthiazol-2yl)-2,5-diphenyltetrazolium bromide (MTT) method. Cells (5 × 10^5) were settled at a final volume of […] in a flat-bottom 96-well microplate and cultured at 37 °C in a 5% CO2 atmosphere in either the absence or the presence of increasing concentrations of the compounds (5–500 µg/mL). After 24 h, MTT was added at a final concentration of 1.5 mg/mL. Plates were incubated for 2 h at 37 °C. The purple formazan crystals formed were dissolved with […] of ethanol and the absorbance was read at 570 nm in a microplate reader. Results were calculated as the ratio between the optical density in the presence and absence of the compound multiplied by 100.
as §1

[5] = Host cell toxicity on Vero cells by the MTT method; format: cell-based; settings: African green monkey, 24 h, 5-500 µg/mL, read-out: CC50 (50% cytotoxic concentration)
Description: as §2, §3, §1

[6] = tested on: T. cruzi epimastigotes; set-up: method as in PMID 23815577; settings: series of 15 STLs; cited from earlier work

Row | Structure (SMILES) | IC50 ([1]; Trypanosoma cruzi) | IC50 [2] | IC50 [3] | Selectivity Index Promastigotes L. braziliensis [3] | toxicity on mammalian cells (in words) [4] | CC50 at 24 h [5] | Selectivity Index Amastigotes T. cruzi [1] | Selectivity Index Trypomastigotes T. cruzi [2] | activity against the infective form of T. cruzi compared with estafietin (in words) [2] | inhibition at 5 µg/mL ([1]; Trypanosoma cruzi, Vero, at a concentration of 5.0 µg/mL, read-out: percentage of inhibition of T. cruzi amastigotes) | activity on T. cruzi epimastigotes (in words) [6]
1 | O=C(Cn1ccnc1[N+](=O)[O-])NCc1ccccc1 [Benznidazole, reference compound] | 1.8 µg/mL (≈ 6.92 µM) | 11.6 µg/mL (≈ 44.6 µM) | – | – | – | – | – | – | – | – | –
2 | C=C1CCC2C(CC#N)C(=O)OC2C2C1CC1OC12C (stereo not shown) [Compound 5, 11βH,13-cianoestafietin] | 99 µg/mL (≈ 362 µM) | 78.1 µg/mL (≈ 286 µM) | 51.8 µg/mL (≈ 190 µM) | 2.7 | low toxicity | 134 µg/mL (≈ 489 µM) | 1.3 | 1.7 | inactive | – | –
3 | C=C1C(=O)O[C@@H]2C3C(C[C@H]4O[C@@]34C)C3(CC[C@@H]12)CO3 (stereo partly shown) [Compound 3, epoxyestafietin] | 2 µg/mL (≈ 7.62 µM) | 18.7 µg/mL (≈ 71.3 µM) | 7.8 µg/mL (≈ 29.7 µM) | 1.0 | – | 8.1 µg/mL (≈ 30.9 µM) | 4.0 | 0.4 | – | > 75% | –
4 | C=C1CCC2C(C)C(=O)OC2C2C1CC1OC12C (stereo not shown) [Compound 2, 11βH,13-dihydroestafietin] | 83 µg/mL (≈ 334 µM) | 97.1 µg/mL (≈ 391 µM) | 1.3 µg/mL (≈ 5.24 µM) | 126.6 | low toxicity | 165 µg/mL (≈ 663 µM) | 2.0 | 1.7 | less active | – | –
5 | C=C1CCC2C(COC)C(=O)OC2C2C1CC1OC12C (stereo not shown) [Compound 4, 11βH,13-methoxyestafietin] | 30.5 µg/mL (≈ 110 µM) | > 100 µg/mL | 48.7 µg/mL (≈ 175 µM) | – | low toxicity; also recorded: not toxic | 316 µg/mL (≈ 1130 µM) | 10.3 | 3.1 | less active | – | –
6 | C=C1CC[C@H]2C(=C)C(=O)O[C@@H]2C2C1C[C@H]1O[C@@]21C (stereo partly shown) [Compound 1, estafietin] | 28.8 µg/mL (≈ 117 µM) | 25.2 µg/mL (≈ 102 µM) | 1 µg/mL (≈ 4.06 µM) | 240.4 | low toxicity | 240 µg/mL (≈ 976 µM) | 8.3 | 9.5 | – | – | significant activity
7 | C[C@@H]1[C@H](O)[C@@H](C)/C=C/C=C/C=C/C=C/C=C/C=C/C=C/[C@H](O[C@@H]2O[C@H](C)[C@@H](O)[C@H](N)[C@@H]2O)C[C@@H]2O[C@](O)(C[C@@H](O)C[C@@H](O)[C@H](O)CC[C@@H](O)C[C@@H](O)CC(=O)O[C@H]1C)C[C@H](O)[C@H]2C(=O)O [Amphotericin B, reference compound] | – | – | 0.48 µg/mL (≈ 0.519 µM) | – | – | – | – | – | – | – | –
